The METLIN SMRT retention time set (Domingo-Almenara et al. 2019)

Test: gradient 5% acetonitrile 3 min, to 50% in 2 min, to 85% in 15 min, held 3 min, 100 µL/min
Conditions: column: Zorbax Extend-C18 2.1 x 50 mm; eluents: water / acetonitrile, 0.1% formic acid
Summary of the method: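 A Zorbax Extend-C18 column (2.1 × 50 mm, 1.8 μm) run at 100 μL/min with water and acetonitrile, both containing 0.1% formic acid, separated mixtures of ~100 pure standards. The HPLC was coupled to a quadrupole time-of-flight mass spectrometer operated in positive and negative ionization mode, with dead and dwell volumes of 40 μL and 900 μL. Each retention time was taken from a computationally picked adduct peak that was then manually inspected.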

SMILES	RP-LC retention time [s]
O=C(c1ccc(F)cc1F)N1CCN(c2cc(-c3cccs3)[nH]n2)CC1	784
CCOc1ccc(N2C(=O)C3N=NN(Cc4nc(-c5ccc(C)c(C)c5)no4)C3C2=O)cc1 (stereo not drawn)	1110
CC(C)n1nnc2cc(C(=O)N(C)CC(=O)Nc3ccc(F)cc3F)ccc21	744
O=C1NCCOCCCN(C(=O)Nc2ccccc2)[C@H]2CCCC[C@@H]12	672
CCC(C)C(NC(=O)CCc1ccc(OC)cc1)C(=O)Nc1nc2ccccc2[nH]1 (stereo not drawn)	734
CCCNC(=O)c1nc(Nc2ccc(CC)cc2)c2ccccc2n1	813
Cc1[nH]c(C(=O)N2CCN(c3ccccc3F)CC2)c(C)c1S(=O)(=O)N1CCC(C)CC1	1040
O=C(Nc1ccc(NC(=O)N2CCC(C(=O)NCC3CC3)CC2)cc1)NC1CCCCC1	733
CC(C)C(=O)Nc1cc2c(cc1S(=O)(=O)c1ccc(F)cc1)n(C)c(=O)n2C	790
Cc1cnc(C(=O)N2CCCCCCN(C)C(=O)[C@@H]3CCC[C@@H]32)cn1	716
COc1ccc2c(c1)c1ccc3c(c1n2C)C(=O)C=CC3=O	1120
O=C(Cn1nc2ccc(C(=O)NCc3ccccc3)cn2c1=O)NC1CCCC1	702
O=C(CC(=O)N1CCN(C2CCCCC2)CC1)Nc1ccc2nc3n(c(=O)c2c1)CCCCC3	554
O=S(=O)(c1cccc(F)c1)N1CC(c2nc(CCOCC3CCOCC3)no2)C1	686
COc1cc(C(=O)Nc2c(-c3ccccc3)nc3ccccn23)cc(OC)c1OC	636
CCOCC(=O)N1CCN(S(=O)(=O)c2c(C)nn(C(C)C)c2C)CC1	702
CCOc1ccc(CNc2nc3ccncc3n(CC)c2=O)cc1OC	618
Cc1ccc(NC(=O)Cn2c(N)nc(C)cc2=O)cc1	577
Cc1nc(C2CN(S(=O)(=O)c3cc(F)ccc3F)CC23CCOCC3)no1 (stereo not drawn)	834
CC(C)n1cc(S(=O)(=O)N2CCN(c3cccc(Cl)c3)CC2)c2cccnc21	761
Fc1cccc(-c2nc(-c3ccnc(N4CCOCC4)c3)no2)c1	967
O=C(NCC1CCN(S(=O)(=O)C2CC2)CC1)Oc1ccccc1	745
CS(=O)(=O)N1CCC(C(=O)Nc2sccc2C#N)CC1	662
Cc1cccc(NC(=O)N2CCCC2C(=O)NC2CC2)c1 (stereo not drawn)	655
CSc1cccc(N2C(=O)C3N=NN(Cc4nc(-c5ccc(Cl)cc5)no4)C3C2=O)c1 (stereo not drawn)	1070

SMILES	RP-LC retention time [s]
O=C(Nc1cccn2nc(C3CCC3)nc12)c1cccs1	861
Cc1nn(C(C)C(=O)NCCC(C)C)c(=O)c2nn(-c3ccccc3)c(C)c12 (stereo not drawn)	622
CCn1ccc2sc(C)c(C(=O)NC3CCCCCC3)c2c1=O	894
CCCCOC(=O)c1ccc(NC(=O)c2cnc3scc(C)n3c2=O)cc1	1050
O=C(NC1CCN(c2cc(-c3ccc(Cl)cc3)[nH]n2)C1)c1ccc2c(c1)OCO2 (stereo not drawn)	715
COCC(=O)N(C)CCc1noc(-c2ccc(C(=O)N3CCCC3)cc2)n1	626
CC1CCCCN1Cc1nc(-c2ccc(N(C)Cc3ccccc3)nc2)no1 (stereo not drawn)	912
COc1ccc(Cl)cc1N1CC(c2nc(-c3ccc4c(c3)OCO4)no2)CC1=O (stereo not drawn)	941
Cc1ccc(C)c(NC(=O)CSc2nc(N3CCCCC3)nc3ccccc23)c1	804
O=C(Nc1ccc(Cn2cncn2)cc1)c1ccc(Br)o1	708
Cc1nn(C)cc1C(C)NC(=O)C1CCN(c2cn[nH]c(=O)c2)CC1 (stereo not drawn)	568
Cc1ccc(-c2coc(-c3ccc(NC(=O)NCCc4ccccc4)cc3)n2)c(C)c1	1260
CCn1nc(C(=O)Nc2cccc3c2C(=O)N(C)C3=O)cc1C	856
O=C(c1ccc2c(c1)OCO2)N1[C@H]2CC[C@@H]1c1cnc(-c3ccccc3)nc1C2	914
O=C(NCCN1CCCC1)c1nc(Nc2ccc(F)cc2)c2ccccc2n1	689
COc1ccc(S(=O)(=O)Nc2cccc(-c3cn4cccc(C)c4n3)c2)cc1OC	634
COc1cc(NC(=O)Nc2nccn(-c3cc(C)cc(C)c3)c2=O)cc(OC)c1	913
O=C(C1COCC(=O)N1Cc1ccccc1)N1CCN(c2ccc(C(F)(F)F)cn2)CC1 (stereo not drawn)	782
O=C(Cn1nc(Cc2ccncc2)c2ccccc2c1=O)N1CCOCC1	787
CCNC(=O)C1CCCN(c2nc3ncn(CC(=O)Nc4ccc(C)c(Cl)c4)c(=O)c3s2)C1 (stereo not drawn)	738
Cc1cc(C)n(CCNS(C)(=O)=O)n1	534
NC(N)=NCCC[C@H](NC(=O)[C@@H]1CCCN1C(=O)[C@H](N)Cc1ccccc1)C(=O)CCl	1100
CN(C)C(=O)c1ccc2c(c1)nc(CN1CCN(C(=O)c3ccccc3)CC1)n2C	597
Cc1cc(NC(=O)NCC(=O)N2CCc3ccccc32)ccc1Br	959

Results, then the compound that gave them:

RP-LC retention time [s]	SMILES
954	Cn1cc2nc(SCC(=O)Nc3ccc(Cl)cc3F)n(CC3CC3)c(=O)c2n1
742	CSc1cccc(NC(=O)Cn2nc(C(=O)N3CCOCC3)cc2C2CC2)c1
674	N#CC1=C(SCC(=O)Nc2nccs2)NC2=C(C(=O)CCC2)C1c1ccco1 (stereo not drawn)
753	Cc1ccc(CNC(=O)Cn2nc(C(=O)N3CCOCC3)c3ccccc32)cc1
679	Cc1nn(C2CCS(=O)(=O)C2)c(C)c1N1CCN(S(=O)(=O)c2cccnc2)CC1 (stereo not drawn)
852	Cc1cc(C)cc(C(=O)N2CCC3(CC2)NC(=O)c2cc(C)ccc2N3C)c1
1200	Cc1cc(Cl)ccc1OCc1nc(-c2cccc(-c3ccnn3C)c2)no1
787	Cc1ccc2nc(NC(=O)C3CC(=O)N(c4n[nH]c5ccccc45)C3)sc2c1 (stereo not drawn)
515	CC(=O)N1CCN(C(=O)c2ccc(O)cc2)CC1
1080	O=C(c1nnc(-c2ccc(S(=O)(=O)N3CCCCC3)cc2)o1)N1CCN(c2ccccc2)CC1
710	CC(=O)N1CCc2cc(N3CC(C(=O)Nc4cccc(F)c4)CC3=O)ccc21 (stereo not drawn)
810	Cc1ccc(C2=NC3(CCN(C(=O)c4cccs4)CC3)ON2)cc1
585	CC(=O)N1CCc2[nH]c3ccc(C(=O)NC4CCN(Cc5ccccc5)CC4)cc3c2C1
673	Cc1nc(-c2noc(-c3ccncc3)n2)cn1CC(=O)N1CCN(c2ccccc2)CC1
721	O=C(C1CCN(Cc2cc3ccccc3n2Cc2cccc(F)c2)CC1)N1CCCC1
652	O=C(c1ccc(S(=O)(=O)c2ccccc2)s1)N1CCN(c2ccccn2)CC1
704	Cc1ccc(NC(=O)Nc2cccc(-c3ccc(N4CCOCC4)nn3)c2)cc1
892	O=C(C1CCCN(c2cnc3nccnc3c2)C1)N1CCC(Cc2ccccc2)CC1 (stereo not drawn)
578	Cn1ncn2cc(S(=O)(=O)N3CCN(c4ccccn4)CC3)cc2c1=O
777	O=C(NC(c1ccccc1)c1nnc(N2CCCC2)o1)c1ccc2c(c1)OCO2 (stereo not drawn)

RP-LC retention time [s]	SMILES
579	CCNC(=O)N1CCC(CCOc2cccnc2)CC1
989	COc1cc(-c2nc3cccc(C)n3c2Nc2ccc(C)cc2)ccc1O
862	Cc1cc(C)cc(N2CCC(NC(=O)Cc3cccs3)C2=O)c1 (stereo not drawn)
818	CC(=O)c1ccc(NC(=O)Cn2nc3c4cc(-c5ccccc5)nn4ccn3c2=O)cc1
658	COc1ccc(CC(=O)N2CCC(n3cnnc3C3CC3)CC2)cc1Cl
896	CCOC(=O)c1cc(-c2cccc(OC)c2OC)no1
688	CCn1cnc2ccc(C(=O)NC3CCCC3)cc2c1=O
844	CCOC(=O)c1c(NCCc2cccs2)c2cccc(Cl)c2[nH]c1=O
1240	CCOc1ccc(C(=O)Nc2nc(-c3cccc(Br)c3)cs2)cc1
871	COc1ccc(-n2c(=O)n(C)c(=O)c3cc(C(=O)NC(C)c4ccccc4)cnc32)cc1 (stereo not drawn)
832	Cc1ccccc1NS(=O)(=O)c1cc2c(s1)CCN(C(=O)C1CCC1)C2
940	COc1ccc(Nc2ccc3c(=O)c(-c4ccccc4OC)coc3c2)c(OC)c1
750	CN1CCN(c2c(F)cc(C(=O)Nc3nc(-c4ccccc4)cs3)c(F)c2F)CC1
700	Cc1cc2c(N3CCCC(C(=O)NCc4ccc(F)cc4F)C3)nccc2s1 (stereo not drawn)
778	CCOC(=O)c1c(C)[nH]c(C(=O)N2CCC(C(C)C(=O)NCc3ccc4c(c3)OCO4)CC2)c1C (stereo not drawn)
836	Cc1cccc(-n2c(=O)c3c(cc(C)n3C)n(CC(=O)Nc3ccccc3F)c2=O)c1
987	CCOc1ccc(C(=O)N2CCN(c3ccc(-c4nc(CC)cs4)cn3)CC2)cc1
1250	CCN1C(=O)COc2ccc(-c3noc(-c4cccc(Cl)c4)n3)cc21
643	O=C(c1ccc2nc[nH]c2c1)N1CCCn2nc(-c3ccc(Cl)cc3)cc2C1
